Literature values, collected in patent US7517540B2, “Cranberry seed oil extract and compositions containing components thereof” (priority 1999, dated 2009).

How the values were obtained:
MCF-7 = conditions: for Inhibition of proliferation, MCF-7 (Table 5): alone, 1:1 or 1:1:1 combinations; for IC50, inhibition of proliferation of MCF-7: MCF-7 (estrogen receptor-positive), combinations with tamoxifen 1:1
MDA-MB-435 = conditions: for Inhibition of proliferation, MDA-MB-435 (Table 5): alone, 1:1 or 1:1:1 combinations; for IC50, inhibition of proliferation of MDA-MB-435: MDA-MB-435 (estrogen receptor-negative), combinations with tamoxifen 1:1
[1] = fed to hypercholesterolemic chicken

IC50, inhibition of proliferation of MCF-7 (MCF-7) [µg/mL] | IC50, inhibition of proliferation of MDA-MB-435 (MDA-MB-435) [µg/mL] | Compound | Inhibition of proliferation, MCF-7 (Table 5) (MCF-7) | Inhibition of proliferation, MDA-MB-435 (Table 5) (MDA-MB-435) | Hypocholesterolemic potency compared [1]
– | – | COc1ccc(-c2cc(=O)c3c(OC)c(OC)c(OC)c(OC)c3o2)cc1 [Tangeretin only, Tangeretin] | 0.4 | 0.5 | –
125 ± 3 | >1000 | Cc1c(C)c2c(c(C)c1O)CC[C@@](C)(CCC[C@H](C)CCC[C@H](C)CCCC(C)C)O2 [α-Tocopherol] | – | – | –
6 ± 0.3 | 90 ± 3 | CC(C)=CCC/C(C)=C/CC/C(C)=C/CC[C@]1(C)CCc2c(C)c(O)c(C)c(C)c2O1 [α-Tocotrienol] | – | – | –
2 ± 0.05 | 90 ± 3 | CC(C)=CCC/C(C)=C/CC/C(C)=C/CC[C@]1(C)CCc2cc(O)cc(C)c2O1 [δ-Tocotrienol] | – | – | more potently hypocholesterolemic than α-tocopherol, TRF, or α-tocotrienol

Compound | IC50, inhibition of proliferation of MCF-7 (MCF-7) [µg/mL] | IC50, inhibition of proliferation of MDA-MB-435 (MDA-MB-435) [µg/mL] | Inhibition of proliferation, MCF-7 (Table 5) (MCF-7) | Inhibition of proliferation, MDA-MB-435 (Table 5) (MDA-MB-435) | Hypocholesterolemic potency compared [1]
CC(C)=CCC/C(C)=C/CC/C(C)=C/CC[C@]1(C)CCc2cc(O)c(C)c(C)c2O1 [γ-Tocotrienol] | 2 ± 0.1 | 30 ± 2 | 2 | 30 | more potently hypocholesterolemic than α-tocopherol, TRF, or α-tocotrienol
